Laboratory results: PubChem BioAssay AID602161 (Broad Institute, 2011)
Records with an inconclusive call do not appear.

target: Heat shock protein HSP 90-alpha (Homo sapiens) (UniProt P07900); experiment: HsHsp90-dependent glucocorticoid receptor activity inhibition – S. cerevisiae, beta-galactosidase luminescence, dry powder, selectivity assay for Plasmodium Hsp90 inhibitor project, dose response (AID 602161); settings: S. cerevisiae HsHsp90 GR reporter, beta-gal luminescence

AC50 | SMILES
22.2 µM | CCOc1cc(S(=O)(=O)NC2CCCCCC2)ccc1F
9.72 µM | O=C(CSCC(=O)N1CCCCC1)Nc1nc(-c2ccc(Cl)s2)cs1
2.6 µM | O=S(=O)(NC1CCCCCC1)c1ccc(Br)s1
12.6 µM | Cc1ccc(OCc2n[nH]c(=S)n2C2CCCCC2)cc1
9.6 µM | O=S(=O)(/C=C/c1ccccc1)NC1CCCCCCC1
9.79 µM | COc1ccc2c(c1)C=C(C(=O)NCc1ccc(Cl)cc1)CO2
